“Also recorded” adds a separate entry of the source.
Assays:
[1] = Chemical stability (autoclaving at 121° C.); assay type: physicochemical; conditions: 5 mmol Gd/L in 10 mM Tris-HCl buffer, pH 7.4, 121° C. for 20 min
[2] = Off target activity screen (LeadProfilingScreen®, radioligand binding and enzyme assays); conditions: commercial radioligand binding and enzyme assays
[3] = Relaxivity measurements at 1.41 T; assay type: physicochemical
Method: Relaxivity measurements at 1.41 T were performed using a MiniSpec mq60 spectrometer (Bruker Analytik, Karlsruhe, Germany) operating at a resonance frequency of 60 MHz and a temperature of 37° C. The T1 relaxation times were determined using the standard inversion recovery (IR) method with a fixed relaxation delay of at least 5×T1. The variable inversion time (TI) was calculated automatically by the standard software of the MiniSpec mq60 (8 steps). The T2 measurements were done by using a Carr-Purcell-Meiboom-Gill (CPMG) pulse sequence, applying a relaxation delay of at least 5×T1.
Each relaxivity measurement was performed using three different Gd concentrations (3 concentrations between 0.05 and 2 mM). The T1 and T2 relaxation times of the example compounds 1-10 were measured in different media for example in water, fetal bovine serum (FBS, Sigma, F7524) and human plasma.
(§1) Human plasma preparation: For each experiment fresh blood was taken from a volunteer using 10 mL citrate-tubes (Sarstedt S-Monovette 02.1067.001, 10 mL, Citrate). The 10 mL citrate-tubes were carefully inverted 10 times to mix blood and anticoagulant and centrifuged for 15 minutes at 1811 g at room temperature (Eppendorf, Centrifuge 5810R).
The relaxivities ri (where i=1, 2) were calculated on the basis of the measured relaxation rates Ri in water and plasma: Ri=Ri(0)+ri[CGd], where Ri(0) represent the relaxation rate of the respective solvent and CGd the concentration of the compound normalized to the Gadolinium. The Gadolinium concentrations of the investigated solutions were verified by Inductively Coupled Plasma Mass Spectroscopy (ICP-MS Agilent 7500a, Waldbronn, Germany).

[4] = Gadolinium release after the addition of zinc and phosphate (transmetallation); conditions: phosphate buffer pH 7.00, 2.5 mmol/L gadolinium complex, 2.5 mmol/L ZnCl2, 37° C., up to 72 h, FIG. 2
Method: The technique is based on measurement of the evolution of the water proton paramagnetic longitudinal relaxation rate in phosphate buffer (pH 7.00, 26 mmol/L, KH2PO4 Merck, Hessen, Germany) containing 2.5 mmol/L gadolinium complex and 2.5 mmol/L ZnCl2 Sigma-Aldrich, Munich, Germany). […] The mixture was vigorously stirred, and 300 μL were taken out for the relaxometric study at 0 min, 60 min, 120 min, 3 h, 4 h, 5 h, 24 h, 48 h and 72 h. The measurements were performed on a MiniSpec mq60 spectrometer (Bruker Analytik, Karlsruhe, Germany) at 60 MHz and 37° C.

[5] = Relaxivity measurements at 3.0 T; assay type: physicochemical; conditions: 37° C., normalized to Gd, average ± standard deviation
Method: Relaxivity measurements at 3.0 T were performed with a whole body 3.0 T MRI Scanner (Philips Intera, Philips Healthcare, Hamburg, Germany) using a knee-coil (SENSE-Knee-8, Philips Healthcare, Hamburg, Germany). The sample tubes (CryoTubetm Vials, Thermo Scientific 1.8 mL, Roskilde, Denmark) were positioned in 3 rows of 4 and 5 tubes in a plastic holder in a box filled with water. The temperature was adjusted to 37° C. For the MRI sequence, the shortest possible echo-time (TE) with 7.46 milliseconds was used. The inversion times were chosen to optimize the sequence to measure T1 values corresponding to the estimated T1 range of all relaxation times of contrast media containing solutions. The following inversion times (TIs) were applied: 50, 100, 150, 200, 300, 500, 700, 1000, 1400, 2100, 3200, and 4500 milliseconds. The sequence was run with a constant relaxation delay of 3.4 seconds after the registration of the last echo (variable TR in the range from 3450 to 7900 milliseconds). For details of the fit procedure, see Rohrer et. al. (Invest. Radiol. 2005; 40, 11: 715-724). The experimental matrix of the phantom measurement was 320×320.
The relaxivities were evaluated using three different concentrations of each compound (3 concentrations between 0.05 and 2 mM).
as §1, with “The T1 relaxation times of the Example compounds 1-6 were measured in water and human plasma. Human” for “Human”
The relaxivities ri (where i=1, 2) were calculated on the basis of the measured relaxation rates Ri in water and plasma: Ri=Ri(0)+ri[CGd], where Ri(0) represent the relaxation rate of the respective solvent and CGd the concentration of the compound normalized to the Gadolinium (Table 2).

Structure (SMILES): CC(C(=O)NCC(=O)NCC(CNC(=O)CNC(=O)C(C)N1CCN(CC(=O)[O-])CCN(CC(=O)[O-])CCN(CC(=O)[O-])CC1)(CNC(=O)CNC(=O)C(C)N1CCN(CC(=O)[O-])CCN(CC(=O)[O-])CCN(CC(=O)[O-])CC1)CNC(=O)CNC(=O)C(C)N1CCN(CC(=O)[O-])CCN(CC(=O)[O-])CCN(CC(=O)[O-])CC1)N1CCN(CC(=O)[O-])CCN(CC(=O)[O-])CCN(CC(=O)[O-])CC1.[Gd+3].[Gd+3].[Gd+3].[Gd+3] (stereo not drawn) [Example 3, Tetragadolinium [4,10-bis(carboxylatomethyl)-7-{3,6,12,15-tetraoxo-16-[4,7,10-tris-(carboxylatomethyl)-1,4,7,10-tetraazacyclododecan-1-yl]-9,9-bis({[({2-[4,7,10-tris-(carboxylatomethyl)-1,4,7,10-tetraazacyclododecan-1-yl]propanoyl}amino)acetyl]-amino}methyl)-4,7,11,14-tetraazaheptadecan-2-yl}-1,4,7,10-tetraazacyclododecan-1-yl]acetate]
- appearance of the solution after autoclaving [1]: still clear and colorless
- off target activity [2]: no critical finding
- r1 FBS ([3]; fetal bovine serum, 1.41 T, 37° C., normalized to Gd): 11.5 L/mmol/s
- r1 human plasma ([3]; human plasma, 1.41 T, 37° C., normalized to Gd): 11.8 L/mmol/s
- relaxivity relative to reference compound 1 ([3]; see Example A): approximately 2 fold
- r1 water ([3]; water, 1.41 T, 37° C., normalized to Gd): 10.1 L/mmol/s
- stability against transmetallation (relative longitudinal relaxation rate R1p(t)/R1p(0) versus time) [4]: comparable to the high stability macrocyclic Reference compound 1 (Gadovist®); also recorded: comparable to the high stability of Reference compound 1 (Gadovist®)
- r1 human plasma ([5]; human plasma): 10.2 ± 0.2 L/mmol/s
- r1 water ([5]; water): 9.2 ± 0.3 L/mmol/s

Reference: patent US11491245B2, “Gadolinium chelate compounds for use in magnetic resonance imaging” (BAYER PHARMA AKTIENGESELLSCHAFT, priority 2015, dated 2022)
